According to ChEMBL document CHEMBL1146253, “A distal methyl substituent attenuates mitochondrial protein synthesis inhibition in oxazolidinone antibacterials” (Bioorg Med Chem Lett, 2007):
In brackets after ≈: the same amount, converted by molar mass.

Tests used:
Format in all cases: functional
Escherichia coli = test: Intrinsic binding affinity to Escherichia coli ribosmes by TnT assay
Staphylococcus aureus = test: Antibacterial activity against Staphylococcus aureus by broth microdilution method
Streptococcus pneumoniae = test: Antibacterial activity against Streptococcus pneumoniae by broth microdilution method
Enterococcus faecalis = test: Antibacterial activity against Enterococcus faecalis by broth microdilution method

Compound	IC50 (Escherichia coli)	MIC90 (Staphylococcus aureus)	MIC90 (Streptococcus pneumoniae)	MIC90 (Enterococcus faecalis)
CC(=O)NC[C@H]1CN(c2cc(F)c(N3CCC(C)(O)CC3)c(F)c2)C(=O)O1	2100 nM	4 µg/mL (≈ 10.4 µM)	1 µg/mL (≈ 2.61 µM)	2 µg/mL (≈ 5.22 µM)
CCC1(O)CN(c2c(F)cc(N3C[C@H](CNC(C)=O)OC3=O)cc2F)C1	2700 nM	4 µg/mL (≈ 10.8 µM)	2 µg/mL (≈ 5.41 µM)	2 µg/mL (≈ 5.41 µM)
CC(=O)NC[C@H]1CN(c2cc(F)c(N3CCC(C)(CC#N)CC3)c(F)c2)C(=O)O1	–	2 µg/mL (≈ 4.92 µM)	1 µg/mL (≈ 2.46 µM)	1 µg/mL (≈ 2.46 µM)
CC(=O)NC[C@H]1CN(c2cc(F)c(N3CCC(CC#N)CC3)c(F)c2)C(=O)O1	1600 nM	2 µg/mL (≈ 5.1 µM)	1 µg/mL (≈ 2.55 µM)	1 µg/mL (≈ 2.55 µM)
COC1(C)CN(c2c(F)cc(N3C[C@H](CNC(C)=O)OC3=O)cc2F)C1	3700 nM	4 µg/mL (≈ 10.8 µM)	1 µg/mL (≈ 2.71 µM)	4 µg/mL (≈ 10.8 µM)
CC(=O)NC[C@H]1CN(c2ccc(N3CCOCC3)c(F)c2)C(=O)O1 [LINEZOLID]	–	4 µg/mL (≈ 11.9 µM)	1 µg/mL (≈ 2.96 µM)	4 µg/mL (≈ 11.9 µM)
CC(=O)NC[C@H]1CN(c2cc(F)c(N3CC(O)C3)c(F)c2)C(=O)O1	1900 nM	2 µg/mL (≈ 5.86 µM)	1 µg/mL (≈ 2.93 µM)	2 µg/mL (≈ 5.86 µM)
CC(=O)NC[C@H]1CN(c2cc(F)c(N3CC(F)C3)c(F)c2)C(=O)O1	1400 nM	2 µg/mL (≈ 5.83 µM)	1 µg/mL (≈ 2.91 µM)	2 µg/mL (≈ 5.83 µM)
CCC1(O)CCN(c2c(F)cc(N3C[C@H](CNC(C)=O)OC3=O)cc2F)CC1	2100 nM	4 µg/mL (≈ 10.1 µM)	1 µg/mL (≈ 2.52 µM)	2 µg/mL (≈ 5.03 µM)

Continued by falling MIC90 (Staphylococcus aureus), values first:

IC50 (Escherichia coli)	MIC90 (Staphylococcus aureus)	MIC90 (Streptococcus pneumoniae)	MIC90 (Enterococcus faecalis)	Compound
3400 nM	4 µg/mL (≈ 11.3 µM)	1 µg/mL (≈ 2.81 µM)	4 µg/mL (≈ 11.3 µM)	CC(=O)NC[C@H]1CN(c2cc(F)c(N3CC(C)(O)C3)c(F)c2)C(=O)O1
2300 nM	4 µg/mL (≈ 11.2 µM)	1 µg/mL (≈ 2.8 µM)	2 µg/mL (≈ 5.6 µM)	CC(=O)NC[C@H]1CN(c2cc(F)c(N3CC(C)(F)C3)c(F)c2)C(=O)O1
2400 nM	4 µg/mL (≈ 9.77 µM)	2 µg/mL (≈ 4.89 µM)	2 µg/mL (≈ 4.89 µM)	CC(=O)NC[C@H]1CN(c2cc(F)c(N3CC(O)(C(F)(F)F)C3)c(F)c2)C(=O)O1
2600 nM	2 µg/mL (≈ 5.63 µM)	1 µg/mL (≈ 2.81 µM)	2 µg/mL (≈ 5.63 µM)	COC1CN(c2c(F)cc(N3C[C@H](CNC(C)=O)OC3=O)cc2F)C1
1700 nM	2 µg/mL (≈ 5.41 µM)	1 µg/mL (≈ 2.71 µM)	2 µg/mL (≈ 5.41 µM)	CC(=O)NC[C@H]1CN(c2cc(F)c(N3CCC(O)CC3)c(F)c2)C(=O)O1
